Assay results reported in patent US12226380B2, “Method of regulating immunity in the intestines” (Monell Chemical Senses Center, priority 2016, dated 2025).

Experiments:
[1] = tested on: N. brasiliensis or Helgomosomoides polygyrus; conditions: mice with free access to 100 mM succinate, infected with intestinal parasites, up to two weeks post-infection; anticipated
Method: For treatment of parasitic infection, mice are provided with free access to a drinking sprout containing 100 mM succinate (or other SucnR1 agonist) or plain water. Mice are then infected with intestinal parasites, such as N. brasiliensis or Helgomosomoides polygyrus. Mice are examined for the presence of worm (worm burden) in the small intestine, caecum, as well as feces for up to two weeks post-infection.
Similarly, the feces is examined for the presence of parasitic eggs.

DSS-induced colitis = conditions: DSS-treated mice, 100 mM succinate in drinking water vs plain water; anticipated
Method: Mice are treated with DSS to induce intestinal damage. Mice are then provided with a drinking sprout containing 100 mM succinate or plain water. Gut tissue is collected and evaluated for the clinical and histological changes.

O=C(O)CCC(=O)O [succinate]
expelling of helminths (worm burden) [1]: expedited expelling of helminths from the body
clinical outcome (clinical and histological changes of gut tissue) (DSS-induced colitis): better clinical outcome
